Data from publication PMC5218480 (PLoS ONE, 2017).

Tested on: MV-4-11 cells
Experiment: Gene expression microarray analysis (Affymetrix PrimeView) and GSEA
Type: cell-based, human
Design: RFU PODN (11730768_x_at) / Fold change /veh PODN (11730768_x_at) / RFU LINC00158 (11744669_a_at) / Fold change /veh LINC00158 (11744669_a_at) / RFU DUSP10 (11751237_a_at) / Fold change /veh DUSP10 (11751237_a_at) / RFU ID3 (11757404_x_at) / Fold change /veh ID3 (11757404_x_at) / RFU PLEKHG5 (11737974_s_at) / Fold change /veh PLEKHG5 (11737974_s_at) / RFU LRRC4B (11730491_at) / Fold change /veh LRRC4B (11730491_at) / RFU GIMAP4 (11747438_a_at) / Fold change /veh GIMAP4 (11747438_a_at) / RFU KRT8 (11758183_x_at) / Fold change /veh KRT8 (11758183_x_at) / RFU CNN1 (11734310_a_at) / Fold change /veh CNN1 (11734310_a_at) / RFU VPS37D (11726825_at) / Fold change /veh VPS37D (11726825_at) / RFU C10orf10 (11716522_x_at) / Fold change /veh C10orf10 (11716522_x_at) / RFU KIR2DL2 /// KIR2DL4 /// KIR2DL5A /// KIR2DL5B /// KIR2DS1 /// KIR2DS2 /// KIR2DS3 /// KIR2DS4 /// KIR3DL3 /// KIR3DL3 /// KIR3DS1 (11738374_at) / Fold change /veh KIR2DL2 /// KIR2DL4 /// KIR2DL5A /// KIR2DL5B /// KIR2DS1 /// KIR2DS2 /// KIR2DS3 /// KIR2DS4 /// KIR3DL3 /// KIR3DL3 /// KIR3DS1 (11738374_at) / RFU C1QL1 (11718748_at) / Fold change /veh C1QL1 (11718748_at) / RFU TMPRSS4 (11747572_a_at) / Fold change /veh TMPRSS4 (11747572_a_at) / RFU HAMP (11756126_x_at) / Fold change /veh HAMP (11756126_x_at) / RFU RNFT2 (11725882_a_at) / Fold change /veh RNFT2 (11725882_a_at) / RFU NR4A2 (11747474_a_at) / Fold change /veh NR4A2 (11747474_a_at) / RFU ABCC12 (11746883_a_at) / Fold change /veh ABCC12 (11746883_a_at) / RFU TMEM136 (11760407_x_at) / Fold change /veh TMEM136 (11760407_x_at) / RFU CLDN22 /// WWC2 (11732394_at) / Fold change /veh CLDN22 /// WWC2 (11732394_at) / RFU HLA-DPB1 (11760878_x_at) / Fold change /veh HLA-DPB1 (11760878_x_at) / RFU SPINT1 (11716480_a_at) / Fold change /veh SPINT1 (11716480_a_at) / RFU GAP43 (11754022_s_at) / Fold change /veh GAP43 (11754022_s_at) / RFU A4GNT (11735810_at) / Fold change /veh A4GNT (11735810_at) / RFU PRB3 (11715151_x_at) / Fold change /veh PRB3 (11715151_x_at) / RFU TUBB4B (11761932_at) / Fold change /veh TUBB4B (11761932_at) / RFU CAPN14 (11732068_a_at) / Fold change /veh CAPN14 (11732068_a_at) / RFU TMCC2 (11721928_a_at) / Fold change /veh TMCC2 (11721928_a_at) / RFU IRGQ (11745062_a_at) / Fold change /veh IRGQ (11745062_a_at) / RFU FAM174B (11720279_a_at) / Fold change /veh FAM174B (11720279_a_at) / RFU TMPRSS4 (11748680_a_at) / Fold change /veh TMPRSS4 (11748680_a_at) / RFU FAM212B (11763350_a_at) / Fold change /veh FAM212B (11763350_a_at) / RFU PLEKHG5 (11743358_a_at) / Fold change /veh PLEKHG5 (11743358_a_at) / RFU ZSCAN30 (11745921_a_at) / Fold change /veh ZSCAN30 (11745921_a_at) / RFU CMKLR1 (11741424_a_at) / Fold change /veh CMKLR1 (11741424_a_at) / RFU LOC101060620 /// MAPK8IP1 (11723275_at) / Fold change /veh LOC101060620 /// MAPK8IP1 (11723275_at) / RFU SPTSSB (11747773_x_at) / Fold change /veh SPTSSB (11747773_x_at) / RFU PRSS12 (11739890_at) / Fold change /veh PRSS12 (11739890_at) / RFU BIN1 (11741810_x_at) / Fold change /veh BIN1 (11741810_x_at) / RFU WNT11 (11732464_a_at) / Fold change /veh WNT11 (11732464_a_at) / RFU C10orf10 (11716521_a_at) / Fold change /veh C10orf10 (11716521_a_at) / RFU C5orf56 (11738089_at) / Fold change /veh C5orf56 (11738089_at) / RFU CYB561 (11721691_x_at) / Fold change /veh CYB561 (11721691_x_at) / RFU ANKRD19P (11752326_a_at) / Fold change /veh ANKRD19P (11752326_a_at) / RFU OR2T12 /// OR2T33 /// OR2T8 (11738714_s_at) / Fold change /veh OR2T12 /// OR2T33 /// OR2T8 (11738714_s_at) / RFU VCAN (11748164_a_at) / Fold change /veh VCAN (11748164_a_at) / RFU JSRP1 (11732532_at) / Fold change /veh JSRP1 (11732532_at) / RFU KRTAP10-11 (11738290_x_at) / Fold change /veh KRTAP10-11 (11738290_x_at) / RFU MYO3A (11730013_a_at) / Fold change /veh MYO3A (11730013_a_at) / RFU EBF3 (11725865_a_at) / Fold change /veh EBF3 (11725865_a_at) / RFU CAMK2N1 (11719241_x_at) / Fold change /veh CAMK2N1 (11719241_x_at) / RFU C5orf56 (11738088_a_at) / Fold change /veh C5orf56 (11738088_a_at) / RFU OLFML3 (11715873_a_at) / Fold change /veh OLFML3 (11715873_a_at) / RFU LOC100653217 /// NTM (11731650_a_at) / Fold change /veh LOC100653217 /// NTM (11731650_a_at) / RFU MAPK11 (11762145_a_at) / Fold change /veh MAPK11 (11762145_a_at) / RFU FIZ1 (11724087_x_at) / Fold change /veh FIZ1 (11724087_x_at) / RFU OASL (11726364_x_at) / Fold change /veh OASL (11726364_x_at) / RFU SOX15 (11748057_x_at) / Fold change /veh SOX15 (11748057_x_at) / RFU CD79A (11719716_a_at) / Fold change /veh CD79A (11719716_a_at) / RFU HIST1H1D (11736915_at) / Fold change /veh HIST1H1D (11736915_at) / RFU CASKIN2 (11723855_a_at) / Fold change /veh CASKIN2 (11723855_a_at) / RFU LOC730098 (11760151_x_at) / Fold change /veh LOC730098 (11760151_x_at) / RFU OR4N2 (11742367_at) / Fold change /veh OR4N2 (11742367_at) / RFU PRRT2 (11749266_a_at) / Fold change /veh PRRT2 (11749266_a_at) / RFU SNX32 (11753110_a_at) / Fold change /veh SNX32 (11753110_a_at) / RFU CDHR5 (11726645_a_at) / Fold change /veh CDHR5 (11726645_a_at) / RFU RCAN1 (11760418_a_at) / Fold change /veh RCAN1 (11760418_a_at) / RFU FAM167A (11723789_a_at) / Fold change /veh FAM167A (11723789_a_at) / RFU FAM26E (11764081_at) / Fold change /veh FAM26E (11764081_at) / RFU ISYNA1 (11749810_s_at) / Fold change /veh ISYNA1 (11749810_s_at) / RFU ACY1 (11761880_at) / Fold change /veh ACY1 (11761880_at) / RFU 11764098_at / Fold change /veh 11764098_at / RFU SAMD14 (11745864_x_at) / Fold change /veh SAMD14 (11745864_x_at) / RFU NPB (11741838_a_at) / Fold change /veh NPB (11741838_a_at) / RFU TMPRSS6 (11731388_a_at) / Fold change /veh TMPRSS6 (11731388_a_at) / RFU KRTAP10-2 (11738614_at) / Fold change /veh KRTAP10-2 (11738614_at) / RFU ARHGAP8 /// PRR5-ARHGAP8 (11727945_x_at) / Fold change /veh ARHGAP8 /// PRR5-ARHGAP8 (11727945_x_at) / RFU KRTAP5-7 /// NADSYN1 (11734609_at) / Fold change /veh KRTAP5-7 /// NADSYN1 (11734609_at) / RFU RASL12 (11751679_a_at) / Fold change /veh RASL12 (11751679_a_at) / RFU CDKN2B (11736163_a_at) / Fold change /veh CDKN2B (11736163_a_at) / RFU PRF1 (11729649_at) / Fold change /veh PRF1 (11729649_at) / RFU, ZNF638 /// ZNF638-IT1 / Fold change vs veh, ZNF638 /// ZNF638-IT1 / RFU, PANK3 / Fold change vs veh, PANK3 / RFU, SH3YL1 / Fold change vs veh, SH3YL1 / RFU, ZEB2 / Fold change vs veh, ZEB2 / RFU, NRIP1 / Fold change vs veh, NRIP1 / RFU, PTTG1IP / Fold change vs veh, PTTG1IP / RFU, CAPN2 / Fold change vs veh, CAPN2 / RFU, MED14 / Fold change vs veh, MED14 / RFU, SNORA58 / Fold change vs veh, SNORA58 / RFU, C1orf63 / Fold change vs veh, C1orf63 / RFU, LRRFIP1 / Fold change vs veh, LRRFIP1 / RFU, NDUFAF7 / Fold change vs veh, NDUFAF7 / RFU, SLC12A2 / Fold change vs veh, SLC12A2 / RFU, IBTK / Fold change vs veh, IBTK / RFU, ESF1 / Fold change vs veh, ESF1 / Fold change vs veh, TMEM50B / RFU, TAOK1 / Fold change vs veh, TAOK1 / RFU, ACBD3 / Fold change vs veh, ACBD3 / RFU, TMA16 / Fold change vs veh, TMA16 / RFU, RWDD3 / Fold change vs veh, RWDD3 / RFU, BCAT1 / Fold change vs veh, BCAT1 / RFU, EDEM3 / Fold change vs veh, EDEM3 / RFU, TMEM33 / Fold change vs veh, TMEM33 / RFU, WDR75 / Fold change vs veh, WDR75 / RFU, AHCTF1 / Fold change vs veh, AHCTF1 / RFU, TFRC / Fold change vs veh, TFRC / RFU, ZDHHC17 / Fold change vs veh, ZDHHC17 / RFU, NOM1 / Fold change vs veh, NOM1 / RFU, ARL8B / Fold change vs veh, ARL8B / RFU, ZBTB11 / Fold change vs veh, ZBTB11 / RFU, TAMM41 / Fold change vs veh, TAMM41 / RFU, KIAA1704 /// LOC100996395 / Fold change vs veh, KIAA1704 /// LOC100996395 / RFU, ING1 / Fold change vs veh, ING1 / RFU, TRMT61B / Fold change vs veh, TRMT61B / RFU, FUBP3 / Fold change vs veh, FUBP3 / RFU, TP53 / Fold change vs veh, TP53 / RFU, TNKS2 / Fold change vs veh, TNKS2 / RFU, ZFP14 / Fold change vs veh, ZFP14 / RFU, ACTR2 / Fold change vs veh, ACTR2 / RFU, PPP3R1 / Fold change vs veh, PPP3R1 / RFU, PIK3R1 / Fold change vs veh, PIK3R1 / RFU, HNRNPA1 / Fold change vs veh, HNRNPA1 / RFU, RNF170 / Fold change vs veh, RNF170 / RFU, ZNF28 / Fold change vs veh, ZNF28 / RFU, RNGTT / Fold change vs veh, RNGTT / RFU, OGT / Fold change vs veh, OGT / RFU, BRD1 / Fold change vs veh, BRD1 / RFU, MARS / Fold change vs veh, MARS / RFU, ZNF655 / Fold change vs veh, ZNF655 / RFU, FAHD1 / Fold change vs veh, FAHD1 / RFU, BDP1 / Fold change vs veh, BDP1 / RFU, LRRCC1 / Fold change vs veh, LRRCC1 / RFU, ARID1A / Fold change vs veh, ARID1A / RFU, ZNF146 / Fold change vs veh, ZNF146 / RFU, ZNF330 / Fold change vs veh, ZNF330 / RFU, GPN3 / Fold change vs veh, GPN3 / RFU, C9orf123 / Fold change vs veh, C9orf123 / RFU, N4BP2L2 / Fold change vs veh, N4BP2L2 / RFU, ARFIP1 / Fold change vs veh, ARFIP1 / RFU, FAM179B / Fold change vs veh, FAM179B / RFU, BCL10 / Fold change vs veh, BCL10 / RFU, UHRF1BP1L / Fold change vs veh, UHRF1BP1L / RFU, BET1 / Fold change vs veh, BET1 / RFU, CNOT2 / Fold change vs veh, CNOT2 / RFU, ZNF268 / Fold change vs veh, ZNF268 / Fold change vs veh, ZNF507 / RFU, DGCR2 / Fold change vs veh, DGCR2 / RFU, WDSUB1 / Fold change vs veh, WDSUB1 / Fold change vs veh, HSP90B1 /// MIR3652 / RFU, ADSS / Fold change vs veh, ADSS / RFU, GK / Fold change vs veh, GK / RFU, ZNF148 / Fold change vs veh, ZNF148 / RFU, TAF9 / Fold change vs veh, TAF9 / RFU, SLC1A5 / Fold change vs veh, SLC1A5 / RFU, SLMO2 / Fold change vs veh, SLMO2 / RFU, ABCC4 / Fold change vs veh, ABCC4 / RFU, LOC101060439 /// RAP1B / Fold change vs veh, LOC101060439 /// RAP1B / RFU, RFX7 / Fold change vs veh, RFX7 / RFU, GTPBP10 / Fold change vs veh, GTPBP10 / RFU, CNEP1R1 / Fold change vs veh, CNEP1R1 / RFU, BIVM-ERCC5 /// ERCC5 / Fold change vs veh, BIVM-ERCC5 /// ERCC5 / RFU, ILF3 / Fold change vs veh, ILF3 / RFU 11762660_at / Fold change /veh 11762660_at / RFU VCAN (11757783_s_at) / Fold change /veh VCAN (11757783_s_at) / RFU DDX43 (11728927_at) / Fold change /veh DDX43 (11728927_at) / RFU KRT8 (11758188_x_at) / Fold change /veh KRT8 (11758188_x_at) / RFU NKD1 (11759106_at) / Fold change /veh NKD1 (11759106_at) / RFU SRD5A1 (11742802_a_at) / Fold change /veh SRD5A1 (11742802_a_at) / RFU TPSAB1 /// TPSB2 (11721975_s_at) / Fold change /veh TPSAB1 /// TPSB2 (11721975_s_at) / RFU GSTM3 (11746129_a_at) / Fold change /veh GSTM3 (11746129_a_at) / RFU IL23R (11737362_x_at) / Fold change /veh IL23R (11737362_x_at) / RFU TMEM51 (11727254_a_at) / Fold change /veh TMEM51 (11727254_a_at) / RFU PIWIL2 (11732686_x_at) / Fold change /veh PIWIL2 (11732686_x_at) / RFU ORM1 (11744905_x_at) / Fold change /veh ORM1 (11744905_x_at) / RFU CCDC152 (11743942_at) / Fold change /veh CCDC152 (11743942_at) / RFU ECM1 (11717891_a_at) / Fold change /veh ECM1 (11717891_a_at) / RFU IL23R (11748794_a_at) / Fold change /veh IL23R (11748794_a_at) / RFU TNFAIP8L3 (11732012_x_at) / Fold change /veh TNFAIP8L3 (11732012_x_at) / RFU MBOAT4 (11741988_at) / Fold change /veh MBOAT4 (11741988_at) / RFU 11764193_at / Fold change /veh 11764193_at / RFU TMEM53 (11763286_at) / Fold change /veh TMEM53 (11763286_at) / RFU MAGEB2 (11727129_at) / Fold change /veh MAGEB2 (11727129_at) / RFU TMEM200A (11744735_a_at) / Fold change /veh TMEM200A (11744735_a_at) / RFU CCDC152 (11751479_a_at) / Fold change /veh CCDC152 (11751479_a_at) / RFU FAM211A (11726209_a_at) / Fold change /veh FAM211A (11726209_a_at) / RFU RGS16 (11746705_a_at) / Fold change /veh RGS16 (11746705_a_at) / RFU VCAN (11755009_s_at) / Fold change /veh VCAN (11755009_s_at) / RFU RHOB (11743442_s_at) / Fold change /veh RHOB (11743442_s_at) / RFU RGS16 (11720943_a_at) / Fold change /veh RGS16 (11720943_a_at) / RFU RGS16 (11720944_at) / Fold change /veh RGS16 (11720944_at) / RFU, VPS4B / Fold change vs veh, VPS4B / RFU, CREB1 / Fold change vs veh, CREB1 / RFU, DNAJC13 / Fold change vs veh, DNAJC13 / RFU, GNAQ / Fold change vs veh, GNAQ / RFU, CDK5R1 / Fold change vs veh, CDK5R1 / RFU, ZRANB3 / Fold change vs veh, ZRANB3 / RFU, CUL4A / Fold change vs veh, CUL4A / RFU, CCNY / Fold change vs veh, CCNY / RFU, UFL1 / Fold change vs veh, UFL1 / RFU, COG3 / Fold change vs veh, COG3 / RFU, DIAPH2 / Fold change vs veh, DIAPH2 / RFU, SKA2 / Fold change vs veh, SKA2 / RFU, AFF3 / Fold change vs veh, AFF3 / RFU, LMF1 / Fold change vs veh, LMF1 / RFU, IPO11 / Fold change vs veh, IPO11 / RFU, DFFB / Fold change vs veh, DFFB / RFU, FOXP1 / Fold change vs veh, FOXP1 / RFU, CARD8 / Fold change vs veh, CARD8 / RFU, STRN3 / Fold change vs veh, STRN3 / RFU, ADK / Fold change vs veh, ADK / RFU, RASSF2 / Fold change vs veh, RASSF2 / RFU, WIPF1 / Fold change vs veh, WIPF1 / RFU, LARP1B / Fold change vs veh, LARP1B / RFU, RASA1 / Fold change vs veh, RASA1 / RFU, RB1 / Fold change vs veh, RB1 / RFU, PPFIA1 / Fold change vs veh, PPFIA1 / RFU, MAT2A / Fold change vs veh, MAT2A / RFU, CCT5 / Fold change vs veh, CCT5 / RFU, WDR92 / Fold change vs veh, WDR92 / RFU, CUX1 / Fold change vs veh, CUX1 / RFU, TTC7A / Fold change vs veh, TTC7A / RFU, TMEM135 / Fold change vs veh, TMEM135 / RFU, DEPTOR / Fold change vs veh, DEPTOR / RFU, CPM / Fold change vs veh, CPM / RFU, DNAJB6 / Fold change vs veh, DNAJB6 / RFU, CACNA2D3 / Fold change vs veh, CACNA2D3 / RFU, DTX4 / Fold change vs veh, DTX4 / RFU, TFCP2 / Fold change vs veh, TFCP2 / RFU, GMCL1 /// GMCL1P1 / Fold change vs veh, GMCL1 /// GMCL1P1 / RFU, AEBP2 / Fold change vs veh, AEBP2 / RFU, SNHG1 /// SNORD22 /// SNORD25 /// SNORD26 /// SNORD27 /// SNORD28 /// SNORD29 /// SNORD31 / Fold change vs veh, SNHG1 /// SNORD22 /// SNORD25 /// SNORD26 /// SNORD27 /// SNORD28 /// SNORD29 /// SNORD31 / Fold change (Aza/veh), C12orf56 (ProbeSet 11735607_a_at) / Fold change (ACY-1035/veh), C12orf56 (ProbeSet 11735607_a_at) / Fold change (Aza/veh), FGFR1OP (ProbeSet 11751329_s_at) / Fold change (ACY-1035/veh), FGFR1OP (ProbeSet 11751329_s_at) / Fold change (Aza/veh), VPS36 (ProbeSet 11739960_a_at) / Fold change (ACY-1035/veh), VPS36 (ProbeSet 11739960_a_at) / RFU SYPL1 (11715823_x_at) / Fold change /veh SYPL1 (11715823_x_at) / RFU IGFBP7 (11715501_s_at) / Fold change /veh IGFBP7 (11715501_s_at) / RFU REEP3 (11722064_at) / Fold change /veh REEP3 (11722064_at) / RFU IGLL1 (11728026_x_at) / Fold change /veh IGLL1 (11728026_x_at): dose or concentration left out as unconfirmed
Conditions: MV-4-11 cells, 48 hours

`Nc1ncn([C@@H]2O[C@H](CO)[C@@H](O)[C@H]2O)c(=O)n1` [azacitidine] was tested, and the “Fold change /veh FAM211A (11726209_a_at)” value was 1.26.
